Measured values taken from patent US4707475A, “Agent for lowering serum prolactin levels” (priority 1985, dated 1987).

Tests used:
[1] = tested on: dopamine autoreceptors (DA-autoreceptors); details: cited from earlier work; for selectivity as DA-autoreceptor agonist: compared with B-HT 920, literature
[2] = tested on: prolactin; details: Gudelsky 1983; cited from earlier work
[3] = tested on: DA-receptors; details: cited from earlier work; for action as DA agonist: Gudelsky et al.
[4] = tested on: prolactin level; assay: Prolactin level in blood of 6 healthy male subjects after 150 μg B-HT 920 (PROLRIA-100 radioimmunological method); type: in vivo, healthy male subjects (human); design: unit not given here
Description: The compound B-HT 920 is tested for its effect on PRL-reduction as follows. The tests are carried out with 6 healthy male subjects ranging in age from 24 to 34, each subject being given 150 μg of B-HT 920. Blood samples are taken from each subject at intervals of 0, 1, 2, 3 and 5 hours. The prolactin level in the sample is determined by the known PROLRIA-100 radioimmunological method of the National Insitute of the Radioelements, 6220 Fleurs, Belgium. The following table contains the results found for each subject at the 1 hour intervals shown.

[5] = tested on: endogenous dopamine synthesis in the brain; details: in vivo, Anden et al. 1983; cited from earlier work
[6] = tested on: prolactin (PRL); assay: Lowering of blood and serum levels of prolactin (general statement); details: in vivo
[7] = Tolerability (general statement); details: in vivo

CCCN1CCCC(c2cccc(O)c2)C1 (stereo not shown) [3-PPP]
selectivity as DA-autoreceptor agonist [1]: not selectively active as DA-autoreceptor agonists
prolactin inhibiting activity [2]: prolactin inhibiting activity
action as DA agonist [3]: act preferentially as DA agonists

C=CCN1CCc2nc(N)sc2CC1.Cl.Cl [B-HT 920, 6-allyl-2-amino-5,6,7,8-tetrahydro-4H-thiazolo-[4,5-d]azepine dihydrochloride]
prolactin level ([4]; subject 1, 1 hour): 2.56
prolactin level ([4]; subject 1, 2 hours): 0.52
prolactin level ([4]; subject 1, 3 hours): 2.52
prolactin level ([4]; subject 1, 5 hours): 3.26
prolactin level ([4]; subject 1, time 0): 3.33
prolactin level ([4]; subject 2, 1 hour): 2.85
prolactin level ([4]; subject 2, 2 hours): 0.69
prolactin level ([4]; subject 2, 3 hours): 0.52
prolactin level ([4]; subject 2, 5 hours): 2.25
prolactin level ([4]; subject 2, time 0): 3.86
prolactin level ([4]; subject 3, 1 hour): 4.15
prolactin level ([4]; subject 3, 2 hours): 4.92
prolactin level ([4]; subject 3, 5 hours): 1.85
prolactin level ([4]; subject 3, time 0): 4.22
prolactin level ([4]; subject 4, 1 hour): 4.52
prolactin level ([4]; subject 4, 2 hours): 7.89
prolactin level ([4]; subject 4, 5 hours): 4.11
prolactin level ([4]; subject 4, time 0): 5.04
prolactin level ([4]; subject 5, 1 hour): 7.19
prolactin level ([4]; subject 5, 2 hours): 1.37
prolactin level ([4]; subject 5, 3 hours): 3.43
prolactin level ([4]; subject 5, 5 hours): 2.89
prolactin level ([4]; subject 5, time 0): 5.00
prolactin level ([4]; subject 6, 1 hour): 7.59
prolactin level ([4]; subject 6, 2 hours): 1.57
prolactin level ([4]; subject 6, 5 hours): 4.33
prolactin level ([4]; subject 6, time 0): 6.59
effect on dopamine autoreceptors ([1]; Anden et al. 1982): selective agonistic effect on dopamine autoreceptors
effect on endogenous dopamine synthesis [5]: inhibits endogenous dopamine synthesis in the brain

CN(C)C1CCc2cc(O)c(O)cc2C1 (stereo not shown) [TL-99]
selectivity as DA-autoreceptor agonist [1]: not selectively active as DA-autoreceptor agonists
prolactin inhibiting activity [2]: prolactin inhibiting activity
action as DA agonist [3]: act preferentially as DA agonists
postsynaptic activity ([3]; effect on the DA-receptors, Pastor et al. 1983): possibly has a postsynaptic activity

CN1CCc2cccc3c2[C@H]1Cc1ccc(O)c(O)c1-3 [apomorphine]
selectivity as DA-autoreceptor agonist [1]: not selectively active as DA-autoreceptor agonists
action on DA-receptors and DA-autoreceptors ([3]; well known): acts both on DA-receptors and also on DA-autoreceptors

C=CCN1CCc2nc(N)sc2CC1 [compound A, 6-allyl-2-amino-5,6,7,8-tetrahydro-4H-thiazolo-[4,5-d]azepine]
effect on blood and serum levels of prolactin (PRL) [6]: lower the blood and serum levels of prolactin (PRL)
tolerability [7]: well tolerated
